Where a name gives a salt, the structure may show the parent alone.
Assays:
Type in all cases: in vivo, human
[1] = system: inflamed site of the nasal mucosa; assay: ALA-PDD: PpIX accumulation in the nasal mucosa after oral ALA hydrochloride; details: 3 subject volunteers with allergic rhinitis; 20 mg/kg oral; 408 nm violet light after about 6 hours
Protocol: (§1) To 3 subject volunteers with allergic rhinitis, 20 mg/kg of ALA hydrochloride was orally administered, and violet light of 408 nm was irradiated into the nasal cavity after about 6 hours using a bronchoscope enabling fluorescence observation (SAFE-3000 from Pentax) to perform ALA-PDD. […] The light of a red LED (light emitting diode) (FIG. 2) having a wavelength of 635 nm was irradiated on the inflamed site of the nasal mucosa until the red fluorescence could not be visually observed (FIG. 3). More specifically, the red LED light having a wavelength of 635 nm was irradiated for a certain period, followed by discontinuing the PDT irradiation; a bronchoscope (SAFE-3000 from Pentax) was inserted into the nasal cavity by interchanging with the irradiation device; and after observing red light, the PDT irradiation was again performed.

allergic rhinitis = assay: ALA-PDT with 635 nm red LED on the inflamed site after oral ALA hydrochloride, subjects with allergic rhinitis; details: 3 subjects; 20 mg/kg oral; 635 nm red LED until red fluorescence no longer visible
Protocol: as §1

[2] = system: allergic rhinitis due to pollinosis; assay: ALA-PDT with 635 nm red semiconductor laser after ALA hydrochloride in applied liquid form (transdermal, nasal cavity), subjects with pollinosis; details: 5% by weight in saline on cotton in the nasal cavity for 1 hour, 100 J of 635 nm laser for 6 minutes
Protocol: Then, it was examined whether or not, even when the ALA hydrochloride was administered in an applied liquid form, it could treat allergic rhinitis. A saline solution comprising 5% by weight of ALA hydrochloride sufficiently soaked in cotton was applied to the nasal cavity of 4 adult male subjects with pollinosis, and the soaked cotton was left in place for 1 hour before being removed. 100 J of red semiconductor laser light having a wavelength of 635 nm was intranasally irradiated for 6 minutes immediately after removing the soaked cotton on 3 of the subjects and 1 hour after removing the soaked cotton on the remaining 1 subject. As a result, symptoms of a severe runny nose and sneezing due to pollinosis of the 4 subjects disappeared for the 1 subject irradiated 1 hour thereafter and abated for the 3 subjects irradiated immediately thereafter. […] In addition, the treatment by the liquid form application is shown to be more excellent treatment than that by oral administration in view of cost effectiveness and time effectiveness because the direct application of an ALA hydrochloride solution around an inflamed site of the nasal mucosa can more decrease the amount of ALA hydrochloride administered than oral administration and PpIX accumulates in a short time in the inflamed site of the nasal mucosa.

[3] = system: allergic rhinitis due to pollinosis; assay: ALA-PDT with 635 nm red semiconductor laser into the entire nasal cavity after oral ALA hydrochloride, subjects with pollinosis; details: 20 mg/kg oral
Protocol: To a total 12 subjects with pollinosis, 7 adult males and 5 adult females, 20 mg/kg of ALA hydrochloride was orally administered, and 6 hours later, 100 J of red semiconductor laser light having a wavelength of 635 nm was irradiated into the nasal cavity for 6 minutes. As a result, symptoms of a severe runny nose and sneezing due to pollinosis of the 12 subjects disappeared ([…]) or abated (5 subjects), and these effects were maintained until at least 1 year after the irradiation.

[4] = of 12 subjects with pollinosis, 6 hours later 100 J of 635 nm laser for 6 minutes

## NCC(=O)CCC(=O)O [ALA hydrochloride, 5-aminolevulinic acid]
[1]
  inflamed site of the nasal mucosa by which PpIX was taken up (ALA-PDD fluorescence): detected as red fluorescence
Allergic rhinitis
  course of symptoms of runny nose and sneezing thereafter: abated over several weeks
  symptoms of a severe runny nose and sneezing until several days after the irradiation: observed in the 3 subjects
[2]; 1 subject
  symptoms of a severe runny nose and sneezing, irradiated 1 hour after removing the soaked cotton: disappeared
[2]; 3 subjects
  symptoms of a severe runny nose and sneezing, irradiated immediately after removing the soaked cotton: abated
[3]; 12 subjects with pollinosis, 100 J of 635 nm laser for 6 minutes
  time for which the effects were maintained after the irradiation: at least 1 year
[3]; [4]
  subjects whose symptoms of a severe runny nose and sneezing abated: 5 subjects
  subjects whose symptoms of a severe runny nose and sneezing disappeared: 3 subjects

Reference: patent US9550073B2, “Therapeutic agent for allergic rhinitis” (SBI Pharmaceuticals Co., Ltd., priority 2011, dated 2017)
